Marks after values point to notes of the source that are not given here.

The values below come from patent US20070149483A1, “Methods and compounds for modulating triglyceride and vldl secretion” (priority 2003, published 2007).

Common to all, as to format: cell-based, rat
Data set [1] has as its system McA-RH7777 cells stably expressing human apoB100. Nature of the data set: Competitive ELISA of apoB100 protein in medium. Conditions: after 16-h incubation, n=3. As for the experimental part: (§1) Cell Culture and Fatty Acid Treatments—Transfected McA-RH7777 cells stably expressing human apoB100 (McLeod et al., 1994, J. Biol. Chem. 269, 2852-2862) were cultured in Dulbecco's modified Eagle's medium (DMEM) containing 10% fetal bovine serum (FBS), 10% horse serum and 200 μg/ml G418. Routinely, the cells were incubated with 0.4 mM fatty acids for 16-18 h in the presence of 20% FBS prior to experiments.
Competitive Enzyme Linked Immunosorbent Assay (ELISA)—The ELISA plates were coated with human LDL (1 mg/ml in PBS, 16 h, 4° C.), blocked with skim milk (5% in PBS, 2 h, 37° C.), and washed three times with PBS containing 0.02% Tween-20. The plates were incubated with apoB monoclonal antibody 1D1 (1:64,000, 16 h, 4° C.) in the presence of serial diluted concentrations of human LDL or medium samples. The plates were washed and incubated with horseradish peroxidase-linked anti-mouse IgG antibody (1:10,000, 2 h, 37° C.), followed by addition of the liquid substrate system for ELISA (3,3′,5,5′-tetramethyl-benzidine). The reaction was quantified colorimetrically by spectrophotometer reading at OD665.

Data set [2] shares this test system. The data set can be described thus: Synthesis and secretion of [3H]glycerol-labelled TG and PC. As for the experimental part:
as §1
Other Assays—The TG transfer activity of MTP was determined according to published method (Wetterau et al., 1992, Science 258, 999-1001) with modifications (Wang et al., 1999). The phosphatidate phosphohydrolase activity was determined by an established method (Jamal et al., 1991, J. Biol. Chem. 266, 2988-2996). Lipid extraction and analysis by TLC was performed as previously described (Tran et al., 2000). Protein was determined using the BCA™ protein assay kit (Pierce).

The test system is the same in data set [3]. Nature of the data set: Tandem mass spectrometry of PC and PE in membranes of subcellular organelles. Conditions: for PC content, Total / PC content, membranes of ER / PC content, membranes of cis/medial Golgi / PC content, membranes of distal Golgi / PE content, Total / PE content, membranes of ER / PE content, membranes of cis/medial Golgi / PE content, membranes of distal Golgi: control cells set as 100. An excerpt:
Subcellular Fractionation—Three subcellular fractions (i.e., ER, fractions 1 through 3; cis/medial Golgi, fractions 4 through 8; distal Golgi, fractions 9 through 15) were obtained from the cell lysates using Nycodenz gradient centrifugation (Hammond and Helenius, 1994, J. Cell Biol. 126, 41-52; Rickwood et al., 1982, Anal. Biochem. 123, 23-31) of the post-nuclear supernatant as previously described (Tran et al., 2002). […] The membrane and lumen preparations from ER (Nycodenz fractions 1 through 3), cis/medial Golgi (fractions 4 through 8), and distal Golgi (fractions 9 through 15) were derived from cells pooled from eight 100-mm dishes. Lipids were extracted from the samples with chloroform/methanol/acetic acid/saturated NaCl/H2O (4:2:0.1:1:2, by volume) in the presence of 230 pmol dimirystoyl (14:0-14:0) PC and 110 pmol dipalmitoyl (16:0-16:0) PE as internal standards. Aliquots of lipid extracts were applied to tandem mass spectrometry, and the molecular species (i.e. fatty acid composition) of PC and PE was determined by daughter ion analysis in the negative ion mode as previously described (Tran et al., 2002; DeLong et al., 1999, J. Biol. Chem. 274, 29683-29688). The integrated area under the peak of each molecular species was quantified by comparing with those of internal standards.

Data set [4] has the same test system. The data set can be described thus: Pulse-chase (1 h pulse, up to 3 h chase) of apoB100 and apoA-I secretion efficiency. On the procedure: The cells were then incubated with chase medium for 15, 30 and 45 min. At the end of each chase time, the medium was collected and subjected to cumulative rate flotation centrifugation (Wang et al., 1999) to resolve apoB100-VLDL1 (Sf>100) and apoB100-VLDL2 (Sf 20-100) from other lipoproteins (i.e. IDL, LDL and HDL). The ^35S-apoB100 in each fraction was recovered by immunoprecipitation. Also, at the end of each chase time, the radiolabeled cells were harvested in 2 ml of ice-cold homogenization buffer (10 mM Tris-HCl, pH 7.4, 250 mM sucrose, 5 mM EDTA, and serine/cysteine protease inhibitor mixture), mixed with two 100-mm dishes of unlabeled cells, homogenized by passing ten times through a ball-bearing homogenizer, and subjected to subcellular fractionation and carbonate-treatment as described below.
Oleate and EPA were present in both pulse and chase media. The [^35S]-apoB100 from total cell lysates (FIG. 2A) or conditioned media (FIG. 2B) was immunoprecipitated, resolved by SDS-PAGE, and visualized by fluorography. Radioactivity associated with [^35S]-apoB100 was quantified. As shown in the top panels of FIG. 2A to 2B, the data is expressed as absolute amount of radioactivity associated with [^35S]-apoB100 at the end of 1-h pulse. As shown in the […] panels of FIG. 2A to 2B, the data is expressed as percent of the initial counts associated with ^35S-apoB100 at the end of 1-h pulse. […] The experiments were repeated and similar results were obtained.
It has been shown previously that VLDL, particles carry >80% of total TG but <10% of total apoB100 secreted from oleate-treated McA-RH777 cells (Wang et al., 1999, J. Biol. Chem. 274: 27793-27800). Thus the possibility was considered that the above pulse (30-min)-chase(60 min) experiment might fail to detect decreased secretion and increased post-translational degradation of apoB100 because n-3 fatty acid treatment was reported to selectively decrease apoB100 in VLDL fractions (Fisher and Ginsberg, 2002, J. Biol. Chem. 277: 17377-17380). In the next set of experiments, the pulse-labelling period was extended to 1 h to maximize [^35S]-labelling of apoB100 and to allow examination of potential posttranslational degradation. […] The high labelling of apoB100 at the end of 1-h pulse may reflect increased intracellular accumulation of newly synthesized apoB100 and/or impaired secretion. […] The secretion efficiency, which measures the proportion of total metabolically labelled [^35S]-apoB100 secreted at the end of chase was decreased from 60% to 40% in EPA-treated cells compared to OA-treated cells (FIG. 2B, bottom). […]

Where [5] appears, read: end of 2-h labelling with [^3H]glycerol, means ± SD of triplicate.

`CCCCCCCC/C=C\CCCCCCCC(=O)O` [Oleate, oleic acid]: in data set [1], the “amount of apoB100 protein accumulated in the medium” value came out at 2.74 ± 0.48 µg/mL. Further, in data set [2] (setting [5]), the “[^3H]PC Cell” value turned out to be 15.00 ± 0.23 cpm × 10^−3/dish, the “[^3H]PC Medium” value came to 4.10 ± 0.12 cpm × 10^−3/dish and the “[^3H]TG Medium” value is 12.87 ± 1.59 cpm × 10^−3/dish. Further, in data set [3], the “PC content, Total” value is “(156) % of control”; the “PC content, membranes of ER” value is listed as “(182) % of control”; the “PC content, membranes of cis/medial Golgi” value is on record as “(107) % of control”; the “PC content, membranes of distal Golgi” value is on record as “(173) % of control”. Moreover, in data set [3], the “PE content, Total” value was “(129) % of control”; the “PE content, membranes of ER” value is “(172) % of control”; the “PE content, membranes of cis/medial Golgi” value was “(112) % of control”; the “PE content, membranes of distal Golgi” value was “(106) % of control”. Further, in data set [3] (vs untreated control), the “increase in PC mass in the ER” value is listed as 82%, the “increase in PC mass in the distal Golgi” value stood at 73%, the “increase in PE mass in the ER” value was found to be 72% and the “increase in total PC mass associated with intracellular microsomes” value was 56%. Further, the “increase in total PE mass” value in data set [3] (vs untreated control) was determined as 29%. Also, the “amount of [^35S] incorporated into apoB100 at the end of 1-h pulse” value in data set [4] is given as 6.40×10^4 cpm/dish.

As for `CC/C=C\C/C=C\C/C=C\C/C=C\C/C=C\CCCC(=O)O` [EPA, eicosapentaenoic acid], the “amount of apoB100 protein accumulated in the medium” value in data set [1] came to 2.5 ± 0.43 µg/mL. In data set [2] (setting [5]), the “[^3H]PC Cell” value is on record as 15.80 ± 0.44 cpm × 10^−3/dish, the “[^3H]PC Medium” value turned out to be 3.86 ± 0.57 cpm × 10^−3/dish, the “[^3H]TG Cell” value is 40.84 ± 0.70^b cpm × 10^−3/dish and the “[^3H]TG Medium” value is on record as 7.18 ± 0.96^b cpm × 10^−3/dish. In addition, the “reduction in secretion of [^3H]glycerol-labelled TG” value in data set [2] (vs oleate-treated cells) is recorded as 50%. In data set [3], the “PC content, Total” value is recorded as “(92)* % of control”; the “PC content, membranes of ER” value is reported as “(108)* % of control”; the “PC content, membranes of cis/medial Golgi” value is listed as “(70)* % of control”; the “PC content, membranes of distal Golgi” value is “(94)* % of control”. For the same compound, in data set [3], the “PE content, Total” value is listed as “(185)* % of control”; the “PE content, membranes of ER” value is on record as “(216) % of control”; the “PE content, membranes of cis/medial Golgi” value is “(127) % of control”; the “PE content, membranes of distal Golgi” value is on record as “(270)* % of control”. Moreover, in data set [3] (vs untreated control), the “increase in PE mass in the ER” value is listed as 116%, the “increase in PE mass in the distal Golgi” value turned out to be 170% and the “increase in total PE mass” value stood at 85%. Also, in data set [4], the “[^35S] incorporated into apoB100 at the end of 1-h pulse, greater than in oleate-treated cells” value was roughly 40% and the “amount of [^35S] incorporated into apoB100 at the end of 1-h pulse” value is 9.43×10^4 cpm/dish. In data set [4] (3-h chase), the “secretion efficiency (proportion of total metabolically labelled [^35S]-apoB100 secreted at the end of chase)” value amounted to 40%.
